Measurements as given in paper PMC3383625 (Chemistry & biology, 2012).
Where “and” joins values, the source holds several entries; their conditions need not be identical. Equal entries are not always repeated. Where two headings read alike, the source gives them in different places. rhodamine = not defined here

Columns and labels:
[1] = molecular target: T1, Nox2 (Homo sapiens, UniProt P04839); experiment: Cell-free assay for Nox2-dependent superoxide generation; format: biochemical
Target sequence in this assay (P04839 2-570 limits assumed, one chain of several): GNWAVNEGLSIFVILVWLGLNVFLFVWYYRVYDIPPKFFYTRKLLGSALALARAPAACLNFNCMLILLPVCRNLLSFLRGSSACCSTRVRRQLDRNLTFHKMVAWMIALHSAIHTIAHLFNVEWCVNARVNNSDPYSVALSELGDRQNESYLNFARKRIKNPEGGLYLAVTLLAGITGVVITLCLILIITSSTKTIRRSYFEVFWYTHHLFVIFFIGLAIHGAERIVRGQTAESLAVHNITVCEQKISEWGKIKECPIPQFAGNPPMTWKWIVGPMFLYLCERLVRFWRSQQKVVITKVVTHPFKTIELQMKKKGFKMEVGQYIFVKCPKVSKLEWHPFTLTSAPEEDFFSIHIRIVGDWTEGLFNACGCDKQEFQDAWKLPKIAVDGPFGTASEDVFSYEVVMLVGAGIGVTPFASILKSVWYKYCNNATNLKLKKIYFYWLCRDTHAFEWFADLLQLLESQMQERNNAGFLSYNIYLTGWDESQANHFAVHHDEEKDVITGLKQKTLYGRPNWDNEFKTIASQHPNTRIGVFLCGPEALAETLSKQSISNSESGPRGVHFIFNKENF

[2] = molecular target: T1, Nox2; experiment: Nox2 activity in intact PMA-stimulated neutrophils; format: cell-based
Target sequence in this assay (P04839 2-570 limits assumed, one chain of several): as above

[3] = molecular target: T2, bis-SH3 domain of p47phox (binding of the PRD of p22phox) (Homo sapiens, UniProt P14598); experiment: Fluorescence polarization
T2 sequence (P14598 156-285): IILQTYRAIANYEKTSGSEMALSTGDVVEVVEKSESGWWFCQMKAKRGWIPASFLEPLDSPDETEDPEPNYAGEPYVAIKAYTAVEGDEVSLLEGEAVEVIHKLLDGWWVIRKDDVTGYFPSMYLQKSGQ

[4] = tested on: p47phox and p67phox translocation in neutrophils; format: cell-based, human; conditions: 10 μM ebselen
[5] = molecular target: T3, binding of MBP-p22-C and GST-p47-bis-SH3 (Homo sapiens, UniProt P14598); experiment: Pull-down assay of MBP-p22-C with GST-p47-bis-SH3 on glutathione agarose beads; conditions: 20 μM ebselen
T3 sequence (P14598 156-285): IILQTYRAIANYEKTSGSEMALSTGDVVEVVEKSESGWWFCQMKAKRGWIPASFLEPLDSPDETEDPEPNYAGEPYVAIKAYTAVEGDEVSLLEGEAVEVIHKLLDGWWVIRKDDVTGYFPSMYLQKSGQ

[6] = tested on: protein-kinase-C-mediated phosphorylation of p47phox; experiment: PKC-mediated phosphorylation of p47phox in neutrophils; format: cell-based, human; conditions: 10 μM ebselen
[7] = molecular target: T4, p67phox-p47phox association (Homo sapiens, UniProt P14598); experiment: Co-immunoprecipitation of p67phox with p47phox in PMA-stimulated neutrophils; format: cell-based; conditions: 10 μM ebselen, PMA-stimulated cells
T4 sequence (P14598 1-390): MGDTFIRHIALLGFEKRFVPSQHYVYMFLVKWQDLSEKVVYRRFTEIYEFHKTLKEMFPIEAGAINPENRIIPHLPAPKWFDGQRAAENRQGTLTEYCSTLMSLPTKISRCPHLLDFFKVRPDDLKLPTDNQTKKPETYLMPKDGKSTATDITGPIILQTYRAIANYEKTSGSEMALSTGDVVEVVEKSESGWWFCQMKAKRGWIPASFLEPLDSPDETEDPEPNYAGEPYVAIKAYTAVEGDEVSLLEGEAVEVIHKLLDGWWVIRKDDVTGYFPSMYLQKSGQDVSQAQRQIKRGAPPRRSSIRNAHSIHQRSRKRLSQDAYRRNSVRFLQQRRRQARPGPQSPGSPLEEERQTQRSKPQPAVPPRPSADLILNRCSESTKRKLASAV

[8] = ref Muller et al.,1984; cited from earlier work
[9] = tested on: guinea pig alveolar macrophages; conditions: read-out: IC50 for inhibition in guinea pig macrophages; ref Leurs et al.,1989; cited from earlier work
[10] = tested on: PKC; conditions: ref Cotgreave et al.,1989; cited from earlier work
[11] = tested on: Kupffer cells; conditions: read-out: IC50 for reactive oxygen by luminol luminescence; ref Wang et al.,1992; cited from earlier work
[12] = molecular target: Nox1 (Homo sapiens, UniProt Q9Y5S8); experiment: Nox1 activity in whole cells
[13] = molecular target: T5, Nox4 (Homo sapiens, UniProt Q9NPH5); experiment: Nox4 activity in whole cells; format: cell-based; conditions: read-out: EC50 for inhibition of Nox4 activity in whole cell assay; HEK/Nox4rb cells; ns = no significant inhibition
T5 sequence (Q9NPH5 1-578): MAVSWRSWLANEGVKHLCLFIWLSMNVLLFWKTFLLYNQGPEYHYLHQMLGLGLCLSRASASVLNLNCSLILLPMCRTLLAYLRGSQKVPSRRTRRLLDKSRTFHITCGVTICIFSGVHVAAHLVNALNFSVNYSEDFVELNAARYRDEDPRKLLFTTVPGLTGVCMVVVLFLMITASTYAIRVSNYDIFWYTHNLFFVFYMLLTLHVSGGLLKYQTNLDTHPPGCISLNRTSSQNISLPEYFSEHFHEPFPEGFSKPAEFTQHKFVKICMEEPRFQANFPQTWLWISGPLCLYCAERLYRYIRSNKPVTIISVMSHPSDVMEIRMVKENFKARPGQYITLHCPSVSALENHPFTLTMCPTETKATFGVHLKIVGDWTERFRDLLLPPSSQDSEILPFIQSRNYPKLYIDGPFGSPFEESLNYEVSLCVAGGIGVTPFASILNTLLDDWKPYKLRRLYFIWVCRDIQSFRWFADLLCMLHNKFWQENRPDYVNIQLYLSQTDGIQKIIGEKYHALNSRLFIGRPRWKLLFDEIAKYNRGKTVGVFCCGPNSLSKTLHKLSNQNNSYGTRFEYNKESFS
T5 sequence (P13498 2-195 partner limits assumed): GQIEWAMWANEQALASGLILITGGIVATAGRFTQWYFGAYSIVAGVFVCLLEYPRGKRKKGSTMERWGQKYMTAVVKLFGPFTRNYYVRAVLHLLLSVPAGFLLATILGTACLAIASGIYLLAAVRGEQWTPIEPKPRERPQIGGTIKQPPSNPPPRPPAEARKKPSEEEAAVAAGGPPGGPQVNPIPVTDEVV

[14] = molecular target: T6, GST-tagged p47phox-bis-SH3 domain (GST-p47-bis-SH3) (human, UniProt P14598 156-285); experiment: fluorescence polarisation
T6 sequence (looked up): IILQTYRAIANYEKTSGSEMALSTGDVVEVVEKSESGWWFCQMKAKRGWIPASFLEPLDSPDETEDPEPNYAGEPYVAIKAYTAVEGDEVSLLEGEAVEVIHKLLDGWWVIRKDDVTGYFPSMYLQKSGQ

[15] = comparator as named in text (parent Thr101 or fluoro-derivative j)

Sequence of Nox1 (Q8NFA2 whole entry partner): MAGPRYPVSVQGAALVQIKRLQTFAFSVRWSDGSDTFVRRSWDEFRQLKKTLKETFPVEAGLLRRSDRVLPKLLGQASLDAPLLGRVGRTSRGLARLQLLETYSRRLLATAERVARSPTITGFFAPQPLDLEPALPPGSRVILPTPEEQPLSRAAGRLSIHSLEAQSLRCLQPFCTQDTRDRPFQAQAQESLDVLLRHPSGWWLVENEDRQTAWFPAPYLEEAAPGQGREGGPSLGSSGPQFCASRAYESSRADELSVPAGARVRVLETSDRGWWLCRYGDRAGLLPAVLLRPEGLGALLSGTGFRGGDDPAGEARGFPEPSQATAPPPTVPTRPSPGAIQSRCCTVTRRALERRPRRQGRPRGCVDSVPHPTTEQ
Sequence of Nox1 (Q9Y5S8 whole entry): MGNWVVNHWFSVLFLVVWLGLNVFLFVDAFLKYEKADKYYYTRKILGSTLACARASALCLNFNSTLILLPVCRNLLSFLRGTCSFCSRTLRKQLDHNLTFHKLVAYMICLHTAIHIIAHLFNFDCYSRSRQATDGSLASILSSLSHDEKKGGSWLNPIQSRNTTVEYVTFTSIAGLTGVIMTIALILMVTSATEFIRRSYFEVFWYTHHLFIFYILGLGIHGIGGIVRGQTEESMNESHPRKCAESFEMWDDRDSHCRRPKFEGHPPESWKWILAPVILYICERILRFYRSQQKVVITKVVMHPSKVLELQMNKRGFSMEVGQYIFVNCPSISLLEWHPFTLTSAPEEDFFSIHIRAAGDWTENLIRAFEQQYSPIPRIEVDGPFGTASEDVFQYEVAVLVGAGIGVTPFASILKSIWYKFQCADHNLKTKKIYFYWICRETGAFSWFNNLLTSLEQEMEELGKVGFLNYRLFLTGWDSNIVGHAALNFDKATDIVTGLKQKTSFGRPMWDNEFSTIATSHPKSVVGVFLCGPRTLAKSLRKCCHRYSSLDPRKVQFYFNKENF

c1ccc2c(c1)[I+]c1ccccc1-2 [DPI, diphenylene iodonium]
Luminescence relative to incubations containing DMSO vehicle alone ([1]; cell-free Nox2 assay, data not shown): less than 10% | Luminescence relative to DMSO-treated cells ([2]; neutrophils, 10 uM DPI, data not shown): less than 10%

O=c1c2ccccc2[se]n1-c1ccccc1 [Ebselen]
IC50 in the FP binding assay ([3]; rho-PRD plus GST-p47-bis-SH3, 1% DMSO): submicromolar | Effect on PMA-stimulated translocation of p47phox and p67phox ([4]; 500 nM PMA): completely blocked | Effect on translocation in the absence of PMA ([4]; no PMA): no effect on translocation | Inhibition of binding of MBP-p22-C and GST-p47-bis-SH3 in pulldown [5]: markedly inhibited | Effect on protein-kinase-C-mediated phosphorylation of p47phox or other neutrophil proteins (words) [6]: did not affect | Effect on protein-kinase-C-mediated phosphorylation of p47phox or other neutrophil proteins (words) ([6]; listed as ebselen): does not inhibit PKC phosphorylation | Effect on co-immunoprecipitation of p67phox with p47phox (words) [7]: did affect the ability of p67phox to coimmunoprecipitate with p47phox | Effect on co-immunoprecipitation of p67phox with p47phox (words) ([7]; listed as ebselen): diminishes the co-immunoprecipitation | Optimum concentration needed to catalyze H2O2 peroxidase activity [8]: about 20 μM | IC50 [9]: ~20000 nM | Concentration inhibiting purified PKC enzyme [10]: submicromolar | IC50 [11]: ~1000 nM | EC50 [12]: 150 nM

O=c1c2ccccc2sn1-c1ccccc1 [Thr101]
IC50 ([3]; read-out: IC50 in the FP binding assay, rho-PRD plus GST-p47-bis-SH3, 1% DMSO): 4000 nM and ~4000 nM | IC50 ([1]; read-out: IC50 in the cell-free Nox2 activity assay, neutrophil membranes, 1% DMSO): 4000 nM and ~4000 nM | EC50 ([2]; read-out: EC50 for inhibition of Nox2 activity in whole cell assay, human neutrophils, ns = no significant inhibition): 300 nM | EC50 [13]: 8000 nM | EC50 ([12]; read-out: EC50 for inhibition of Nox1 activity in whole cell assay, HEK/Nox1rb cells, ns = no significant inhibition): 3000 nM

COC(=O)c1ccc(-n2sc3ccccc3c2=O)cc1 [l]
Fold improvement in binding versus comparator compound [3, 15]: ~ 10 fold | IC50 ([3]; read-out: Potency in the binding assay, FP assay): 500 nM | Fold improvement in activity versus comparator compound [1, 15]: ~ 10 fold

B1: rhodamine-labeled peptide corresponding to the PRD of p22phox (rho-PRD) (peptide)
peptide: rhodamine-PPTNPPPRPPAE-NH2
modifications: reading uncertain
Kd [14]: 20 to 40 nM and 20 nM
